The numbers were not newly measured in patent US8211048B2 (Henry Ford Health System, priority 2006, dated 2012), which cites them from elsewhere.

Structures are written as SMILES. Where two headings read alike, the source gives them in different places.

Consider `O=C(O)CC(O)(CC(=O)O)C(=O)O` [Citrate], for which, for the setting “25 C”, the pKa2 is 4.76 and the pKa3 is 6.40. For the same molecule, the pKa3 (as given for pre-filter fluid pH) is listed as 6.3.
